Experimental data as given in patent US10626105B2, “Deuterium-substituted pyridin- and pyrimidin-2-yl-methylamine compounds” (Auspex Pharmaceuticals, Inc., priority 2016, dated 2020).

Assay: In vitro human liver microsomal stability assay
Format: in vitro ADME
Conditions: human liver microsomes 0.5 mg/mL protein, NADPH 2 mM, pH 7.4, 1 μM test compound, 37 °C, 0-45 min; change relative to non-deuterated (d0) comparative compound
Description: In Vitro Liver Microsomal Stability Assay
Human liver microsomal stability assays were conducted at 0.5 mg per mL liver microsome protein with NADPH (2 mM, pH 7.4). Test compounds were prepared as solutions in DMSO and added to the assay mixture (1 μM, final concentration in incubation) to be incubated at 37±1° C. Reactions were initiated with the addition of cofactor and are stopped at 0, 5, 15, 30, and 45 min after cofactor addition with stop reagent (acetonitrile). After quenching, plates containing samples are vibrated for 10 min (600 rpm/min) and then centrifuged at 5594 g for 15 min. Supernatant fractions were analyzed by LC-MS/MS to determine the percent remaining and estimate the degradation half-life of the test compounds.

Compound	Clearance % change over d0	Half-life % change over d0
Cc1ccc(CNCC2(F)CCN(C(=O)c3ccc(F)c(Cl)c3)CC2)nc1 [Example 1, (3-chloro-4-fluorophenyl)(4-fluoro-4-((((5-methylpyridin-2-yl)methyl)amino)methyl)piperidin-1-yl)methanone, reference compound]	0%	0%
[2H]C([2H])(NCc1ccc(C)cn1)C1(F)CCN(C(=O)c2ccc(F)c(Cl)c2)CC1 [Example 2, (3-chloro-4-fluorophenyl)(4-fluoro-4-((((5-methylpyridin-2-yl)methyl)amino)methyl-d2)piperidin-1-yl)methanone]	−7.5%	8.4%
[2H]C([2H])([2H])c1ccc(CNCC2(F)CCN(C(=O)c3ccc(F)c(Cl)c3)CC2)nc1 [Example 3, (3-chloro-4-fluorophenyl)(4-fluoro-4-((((5-(methyl-d3)pyridin-2-yl)methyl)amino)methyl)piperidin-1-yl)methanone]	−5. %	5.6%
[2H]C([2H])([2H])c1ccc(C([2H])([2H])NCC2(F)CCN(C(=O)c3ccc(F)c(Cl)c3)CC2)nc1 [Example 4, (3-chloro-4-fluorophenyl)(4-fluoro-4-((((5-(methyl-d3)pyridin-2-yl)methyl-d2)amino)methyl)piperidin-1-yl)methanone]	−5.1%	5.4%
[2H]C([2H])(NCC1(F)CCN(C(=O)c2ccc(F)c(Cl)c2)CC1)c1ccc(C)cn1 [Example 5, (3-chloro-4-fluorophenyl)(4-fluoro-4-((((5-methylpyridin-2-yl)methyl-d2)amino)methyl)piperidin-1-yl)methanone]	−6.7%	7.2%
[2H]C([2H])([2H])c1ccc(C([2H])([2H])NC([2H])([2H])C2(F)CCN(C(=O)c3ccc(F)c(Cl)c3)CC2)nc1 [Example 6, (3-chloro-4-fluorophenyl)(4-fluoro-4-((((5-(methyl-d3)pyridin-2-yl)methyl-d2)amino)methyl-d2)piperidin-1-yl)methanone]	−9.1%	10.0%
[2H]C(NCc1ccc(C)cn1)C1(F)C([2H])([2H])C([2H])([2H])N(C(=O)c2ccc(F)c(Cl)c2)C([2H])([2H])C1([2H])[2H] (centres unmarked) [Example 7, ([1-[(3-chloro-4-fluorophenyl)carbonyl]-4-fluoro(d8)piperidin-4-yl](d)methyl)[(5-methylpyridin-2-yl)methyl]amine]	−5.8%	6.2%
Cc1cnc(CNCC2(F)CCN(C(=O)c3ccc(F)c(Cl)c3)CC2)nc1 [Example 8, (3-chloro-4-fluorophenyl)(4-fluoro-4-((((5-methylpyrimidin-2-yl)methyl)amino)methyl)piperidin-1-yl)methanone, reference compound]	0%	0%
[2H]C([2H])(NCC1(F)CCN(C(=O)c2ccc(F)c(Cl)c2)CC1)c1ncc(C)cn1 [Example 9, (3-chloro-4-fluorophenyl)(4-fluoro-4-((((5-methylpyrimidin-2-yl)methyl-d2)amino)methyl)piperidin-1-yl)methanone]	3.7%	−3.5%
[2H]C([2H])([2H])c1cnc(CNCC2(F)CCN(C(=O)c3ccc(F)c(Cl)c3)CC2)nc1 [Example 10, (3-chloro-4-fluorophenyl)(4-fluoro-4-((((5-(methyl-d3)pyrimidin-2-yl)methyl)amino)methyl)piperidin-1-yl)methanone]	8.4%	−7.7%
[2H]C([2H])([2H])c1cnc(C([2H])([2H])NCC2(F)CCN(C(=O)c3ccc(F)c(Cl)c3)CC2)nc1 [Example 11, (3-chloro-4-fluorophenyl)(4-fluoro-4-((((5-(methyl-d3)pyrimidin-2-yl)methyl-d2)amino)methyl)piperidin-1-yl)methanone]	5.5%	−5.2%
[2H]C([2H])(NCc1ncc(C)cn1)C1(F)CCN(C(=O)c2ccc(F)c(Cl)c2)CC1 [Example 12, (3-chloro-4-fluorophenyl)(4-fluoro-4-((((5-methylpyrimidin-2-yl)methyl)amino)methyl-d2)piperidin-1-yl)methanone]	2.1%	−2.1%
[2H]C(NCc1ncc(C)cn1)C1(F)C([2H])([2H])C([2H])([2H])N(C(=O)c2ccc(F)c(Cl)c2)C([2H])([2H])C1([2H])[2H] (centres unmarked) [Example 13, ([1-[(3-chloro-4-fluorophenyl)carbonyl]-4-fluoro(d8)piperidin-4-yl](d)methyl)[(5-methylpyrimidin-2-yl)methyl]amine]	−0.9%	0.9%
